Source: PubChem BioAssay (NCI)
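All cell lines were grown in 96-well plates and treated with compound for 48 hours. TGI: concentration producing complete growth inhibition.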

How the values were obtained:
Experiment in all cases: NCI-60 cell line screen, 48 h
[1] = system: 786-0 renal
[2] = system: A498 renal
[3] = system: A549 NSCLC
[4] = system: ACHN renal
[5] = system: BT-549 breast
[6] = system: CAKI-1 renal
[7] = system: CCRF-CEM leukemia
[8] = system: COLO 205 colon
[9] = system: DU-145 prostate
[10] = system: EKVX NSCLC
[11] = system: HCC-2998 colon
[12] = system: HCT-116 colon
[13] = system: HCT-15 colon
[14] = system: HL-60(TB) leukemia
[15] = system: HOP-62 NSCLC
[16] = system: HS 578T breast
[17] = system: HT29 colon
[18] = system: K-562 leukemia
[19] = system: KM12 colon
[20] = system: LOX IMVI melanoma
[21] = system: M14 melanoma
[22] = system: MALME-3M melanoma
[23] = system: MCF7 breast
[24] = system: MDA-MB-231 breast
[25] = system: MDA-MB-435
[26] = system: MDA-N
[27] = system: MOLT-4 leukemia
[28] = system: NCI-H226 lung
[29] = system: NCI-H23 lung
[30] = system: NCI-H460 lung
[31] = system: NCI/ADR-RES ovarian
[32] = system: OVCAR-3 ovarian
[33] = system: OVCAR-4 ovarian
[34] = system: OVCAR-5 ovarian
[35] = system: OVCAR-8 ovarian
[36] = system: PC-3 prostate
[37] = system: RPMI-8226 leukemia
[38] = system: RXF 393 renal
[39] = system: SF-268 CNS
[40] = system: SF-295 CNS
[41] = system: SF-539 CNS
[42] = system: SK-MEL-28 melanoma
[43] = system: SK-MEL-5 melanoma
[44] = system: SK-OV-3 ovarian
[45] = system: SN12C renal
[46] = system: SNB-19 CNS
[47] = system: SNB-75 CNS
[48] = system: SW-620 colon
[49] = system: T-47D breast
[50] = system: TK-10 renal
[51] = system: U251 CNS
[52] = system: UACC-257 melanoma
[53] = system: UACC-62 melanoma
[54] = system: UO-31 renal
[55] = system: HOP-92 NSCLC
[56] = system: IGROV1 ovarian
[57] = system: NCI-H522 lung
[58] = system: SK-MEL-2 melanoma
[59] = system: SR leukemia

COC(=O)C(=O)CC(=O)c1cccc(OC)c1
TGI [1]: > 100 µM
TGI [2]: > 100 µM
TGI [3]: > 100 µM
TGI [4]: > 100 µM
TGI [5]: > 100 µM
TGI [6]: > 100 µM
TGI [7]: > 100 µM
TGI [8]: > 100 µM
TGI [9]: > 100 µM
TGI [10]: > 100 µM
TGI [11]: > 100 µM
TGI [12]: > 100 µM
TGI [13]: > 100 µM
TGI [14]: > 100 µM
TGI [15]: > 100 µM
TGI [16]: > 100 µM
TGI [17]: > 100 µM
TGI [18]: > 100 µM
TGI [19]: > 100 µM
TGI [20]: > 100 µM
TGI [21]: > 100 µM
TGI [22]: > 100 µM
TGI [23]: > 100 µM
TGI [24]: > 100 µM
TGI [25]: > 100 µM
TGI [26]: > 100 µM
TGI [27]: > 100 µM
TGI [28]: > 100 µM
TGI [29]: > 100 µM
TGI [30]: > 100 µM
TGI [31]: > 100 µM
TGI [32]: > 100 µM
TGI [33]: > 100 µM
TGI [34]: > 100 µM
TGI [35]: > 100 µM
TGI [36]: > 100 µM
TGI [37]: > 100 µM
TGI [38]: > 100 µM
TGI [39]: > 100 µM
TGI [40]: > 100 µM
TGI [41]: > 100 µM
TGI [42]: > 100 µM
TGI [43]: > 100 µM
TGI [44]: > 100 µM
TGI [45]: > 100 µM
TGI [46]: > 100 µM
TGI [47]: > 100 µM
TGI [48]: > 100 µM
TGI [49]: > 100 µM
TGI [50]: > 100 µM
TGI [51]: > 100 µM
TGI [52]: > 100 µM
TGI [53]: > 100 µM
TGI [54]: > 100 µM

CC1(C)O[C@H]2OC(CO)C(N=[N+]=[N-])[C@H]2O1 (some centres not stated)
TGI [1]: > 100 µM
TGI [2]: > 100 µM
TGI [3]: > 100 µM
TGI [4]: > 100 µM
TGI [6]: > 100 µM
TGI [7]: > 100 µM
TGI [8]: > 100 µM
TGI [9]: > 100 µM
TGI [10]: > 100 µM
TGI [11]: > 100 µM
TGI [12]: > 100 µM
TGI [13]: > 100 µM
TGI [14]: > 100 µM
TGI [15]: > 100 µM
TGI [55]: > 100 µM
TGI [16]: > 100 µM
TGI [17]: > 100 µM
TGI [56]: > 100 µM
TGI [19]: > 100 µM
TGI [20]: > 100 µM
TGI [21]: > 100 µM
TGI [22]: > 100 µM
TGI [23]: > 100 µM
TGI [24]: > 100 µM
TGI [25]: > 100 µM
TGI [26]: > 100 µM
TGI [27]: > 100 µM
TGI [29]: > 100 µM
TGI [30]: > 100 µM
TGI [57]: > 100 µM
TGI [31]: > 100 µM
TGI [32]: > 100 µM
TGI [33]: > 100 µM
TGI [34]: > 100 µM
TGI [35]: > 100 µM
TGI [36]: > 100 µM
TGI [37]: > 100 µM
TGI [39]: > 100 µM
TGI [40]: > 100 µM
TGI [41]: > 100 µM
TGI [58]: > 100 µM
TGI [42]: > 100 µM
TGI [43]: > 100 µM
TGI [45]: > 100 µM
TGI [46]: > 100 µM
TGI [47]: > 100 µM
TGI [59]: > 100 µM
TGI [48]: > 100 µM
TGI [49]: > 100 µM
TGI [50]: > 100 µM
TGI [51]: > 100 µM
TGI [52]: > 100 µM
TGI [53]: > 100 µM
TGI [54]: > 100 µM

CC(NC(=O)c1c(O)[nH]c(=S)[nH]c1=O)c1ccc([N+](=O)[O-])cc1 (configuration not stated)
TGI [1]: > 100 µM
TGI [3]: > 100 µM
TGI [4]: > 100 µM
TGI [5]: > 100 µM
TGI [6]: > 100 µM
TGI [7]: > 100 µM
TGI [8]: > 100 µM
TGI [9]: > 100 µM
TGI [10]: > 100 µM
TGI [11]: > 100 µM
TGI [12]: > 100 µM
TGI [13]: > 100 µM
TGI [14]: > 100 µM
TGI [15]: > 100 µM
TGI [55]: > 100 µM
TGI [16]: > 100 µM
TGI [17]: > 100 µM
TGI [56]: > 100 µM
TGI [18]: > 100 µM
TGI [19]: > 100 µM
TGI [20]: > 100 µM
TGI [21]: > 100 µM
TGI [23]: > 100 µM
TGI [24]: > 100 µM
TGI [25]: > 100 µM
TGI [26]: > 100 µM
TGI [27]: 95 µM
TGI [28]: > 100 µM
TGI [29]: > 100 µM
TGI [30]: > 100 µM
TGI [32]: > 100 µM
TGI [33]: > 100 µM
TGI [34]: > 100 µM
TGI [36]: > 100 µM
TGI [37]: > 100 µM
TGI [38]: > 100 µM
TGI [39]: > 100 µM
TGI [40]: > 100 µM
TGI [41]: > 100 µM
TGI [58]: > 100 µM
TGI [42]: > 100 µM
TGI [43]: > 100 µM
TGI [44]: > 100 µM
TGI [45]: > 100 µM
TGI [46]: > 100 µM
TGI [47]: 73.3 µM
TGI [48]: > 100 µM
TGI [49]: > 100 µM
TGI [50]: > 100 µM
TGI [51]: > 100 µM
TGI [52]: > 100 µM
TGI [53]: > 100 µM
TGI [54]: > 100 µM

S=C1NCCN1C(=S)Nc1ccccc1
TGI [1]: > 100 µM
TGI [2]: > 100 µM
TGI [3]: > 100 µM
TGI [4]: > 100 µM
TGI [5]: > 100 µM
TGI [6]: > 100 µM
TGI [7]: > 100 µM
TGI [8]: > 100 µM
TGI [9]: > 100 µM
TGI [10]: > 100 µM
TGI [11]: > 100 µM
TGI [12]: > 100 µM
TGI [13]: > 100 µM
TGI [14]: > 100 µM
TGI [15]: > 100 µM
TGI [55]: > 100 µM
TGI [16]: > 100 µM
TGI [17]: > 100 µM
TGI [56]: > 100 µM
TGI [18]: > 100 µM
TGI [19]: > 100 µM
TGI [20]: > 100 µM
TGI [21]: > 100 µM
TGI [22]: > 100 µM
TGI [23]: > 100 µM
TGI [24]: > 100 µM
TGI [25]: > 100 µM
TGI [26]: > 100 µM
TGI [27]: > 100 µM
TGI [28]: > 100 µM
TGI [29]: > 100 µM
TGI [30]: > 100 µM
TGI [57]: > 100 µM
TGI [31]: > 100 µM
TGI [32]: > 100 µM
TGI [33]: > 100 µM
TGI [34]: > 100 µM
TGI [35]: > 100 µM
TGI [38]: 58 µM
TGI [39]: > 100 µM
TGI [40]: > 100 µM
TGI [41]: > 100 µM
TGI [58]: > 100 µM
TGI [42]: > 100 µM
TGI [43]: > 100 µM
TGI [44]: > 100 µM
TGI [45]: > 100 µM
TGI [47]: > 100 µM
TGI [59]: > 100 µM
TGI [48]: > 100 µM
TGI [49]: > 100 µM
TGI [50]: > 100 µM
TGI [51]: > 100 µM
TGI [52]: > 100 µM
TGI [53]: > 100 µM
TGI [54]: > 100 µM
